Measured values reported in ChEMBL document CHEMBL1121424, “Orally active cephalosporins and penicillins” (J Med Chem, 1980).
≈ marks a conversion by molar mass, not a printed value.

What was measured:
[1] = tested on: Enterobacter cloacae; assay: Tested for inhibition of visible growth of Enterobacter cloacae; assay type: functional
[2] = tested on: Klebsiella aerogenes; assay: Tested for inhibition of visible growth of Enterobacter aerogenes; assay type: functional
[3] = tested on: Escherichia coli; assay: Tested for inhibition of visible growth of Escherichia coli; assay type: functional
[4] = tested on: Escherichia coli; assay: Tested for the antimicrobial activity against Escherichia coli in mice perorally; assay type: functional; conditions: po
[5] = tested on: Escherichia coli; assay: Tested for the antimicrobial activity against Escherichia coli in mice; assay type: functional
[6] = (§1) Tested for the antimicrobial activity against Salmonella schottmuelleri in mice; assay type: functional
[7] = as §1; assay type: functional; remark: listed apart in the source
[8] = tested on: Streptococcus pyogenes; assay: (§2) Tested for the antimicrobial activity against Streptococcus pyogenes in mice; assay type: functional
[9] = tested on: Mus musculus; assay: Tested for the antimicrobial activity against Streptococcus pyogenes in mice, subcutaneously.; assay type: functional; conditions: sc
[10] = tested on: Proteus mirabilis; assay: Tested for inhibition of visible growth of Proteus mirabilis; assay type: functional
[11] = Tested for inhibition of visible growth of Salmonella schottmuelleri; assay type: functional
[12] = tested on: Staphylococcus aureus; assay: Tested for inhibition of visible growth of Staphylococcus aureus, benzyl-penicillin sensitive; assay type: functional
[13] = tested on: Streptococcus pyogenes; assay: Tested for inhibition of visible growth of Streptococcus pyogenes; assay type: functional
[14] = tested on: Enterococcus faecalis; assay: Tested for inhibition of visible growth of Streptococcus faecalis; assay type: functional
[15] = tested on: Streptococcus pneumoniae; assay: Tested for inhibition of visible growth of Streptococcus pneumoniae; assay type: functional
[16] = tested on: Klebsiella pneumoniae; assay: Tested for inhibition of visible growth of Klebsiella pneumoniae; assay type: functional
[17] = tested on: Staphylococcus aureus; assay: Tested for inhibition of visible growth of Staphylococcus aureus; assay type: functional
[18] = tested on: Staphylococcus aureus; assay: Tested for the antimicrobial activity against Staphylococcus aureus; assay type: functional
[19] = tested on: Streptococcus pneumoniae; assay: (§3) Tested for the antimicrobial activity against Streptococcus pneumoniae in mice; assay type: functional
[20] = tested on: Streptococcus pneumoniae; assay: as §3; assay type: functional; remark: listed apart in the source
[21] = tested on: Streptococcus pyogenes; assay: as §2; assay type: functional; remark: listed apart in the source
[22] = species on record: Mus musculus; assay: Tested for the antimicrobial activity against Staphylococcus aureus, benzyl-penicillin resistant in mice, perorally; assay type: functional; conditions: po
[23] = tested on: Staphylococcus aureus; assay: Tested for the antimicrobial activity against Staphylococcus aureus, benzyl-penicillin sensitive in mice, perorally; assay type: functional; conditions: po
[24] = Tested for the peak time in mice following 39 mg/kg oral dose of cephalosporin; assay type: ADME, organism-based; set-up: dose 39 mg/kg, route oral; conditions: mouse, in vivo, read-out: Peak time (converted)
[25] = Tested for the peak time in mice following 12.5 mg/kg oral dose of cephalosporin; assay type: ADME, organism-based; set-up: dose 12.5 mg/kg, route oral; conditions: mouse, in vivo, read-out: Peak time (converted)

Row | Structure (SMILES) | MIC [1] | MIC [2] | MIC [3] | ED50 [4] | ED50 [5] | ED50 [6] | ED50 [8] | MIC [10] | MIC [11] | MIC [12] | MIC [13] | MIC [14] | MIC [15] | MIC [16] | MIC [17] | ED50 [18] | ED50 [19] | ED50 [20] | ED50 [21] | ED50 [23] | further results
1 | NC(C(=O)NC1C(=O)N2C(C(=O)O)=C(CSc3cn[nH]n3)CS[C@H]12)c1ccc2c(c1)CCO2 (stereo partly specified) | 50 µg/mL (≈ 102 µM) | 25 µg/mL (≈ 51.2 µM) | 12.5 µg/mL (≈ 25.6 µM) | 19 mg/kg | 11 mg/kg | > 40 mg/kg | 0.27 mg/kg | 100 µg/mL (≈ 205 µM) | 3.1 µg/mL (≈ 6.35 µM) | 0.4 µg/mL (≈ 0.819 µM) | 0.1 µg/mL (≈ 0.205 µM) | 100 µg/mL (≈ 205 µM) | 0.1 µg/mL (≈ 0.205 µM) | 6.2 µg/mL (≈ 12.7 µM) | 1.6 µg/mL (≈ 3.27 µM) | – | – | – | – | – | ED50 [7]: 30 mg/kg; ED50 [9]: 0.19 mg/kg
2 | CC1=C(C(=O)O)N2C(=O)C(NC(=O)[C@H](N)c3ccc4c(c3)OCCO4)C2SC1 (stereo partly specified) | > 100 µg/mL | > 100 µg/mL | > 100 µg/mL | – | – | – | 1 mg/kg | > 100 µg/mL | 50 µg/mL (≈ 123 µM) | 0.8 µg/mL (≈ 1.97 µM) | 0.4 µg/mL (≈ 0.987 µM) | > 100 µg/mL | 0.8 µg/mL (≈ 1.97 µM) | 100 µg/mL (≈ 247 µM) | 3.1 µg/mL (≈ 7.65 µM) | 1.5 mg/kg | 15 mg/kg | 14 mg/kg | 0.81 mg/kg | 0.5 mg/kg | ED50 [22]: 8.3 mg/kg
3 | CC1=C(C(=O)O)N2C(=O)C(NC(=O)[C@H](N)c3ccc4c(c3)CCO4)C2SC1 (stereo partly specified) | > 100 µg/mL | > 100 µg/mL | 50 µg/mL (≈ 128 µM) | – | – | – | 0.37 mg/kg | > 100 µg/mL | 12.5 µg/mL (≈ 32.1 µM) | 0.4 µg/mL (≈ 1.03 µM) | 0.2 µg/mL (≈ 0.514 µM) | > 100 µg/mL | 0.4 µg/mL (≈ 1.03 µM) | 25 µg/mL (≈ 64.2 µM) | 1.6 µg/mL (≈ 4.11 µM) | 0.63 mg/kg | 8.6 mg/kg | 10 mg/kg | 0.34 mg/kg | 0.67 mg/kg | Tmax [24]: 10 min; ED50 [22]: 7 mg/kg
4 | N[C@@H](C(=O)NC1C(=O)N2C(C(=O)O)=C(CSc3c[nH]nn3)CSC12)c1ccc2c(c1)OCO2 (stereo partly specified) | 50 µg/mL (≈ 102 µM) | 50 µg/mL (≈ 102 µM) | 12.5 µg/mL (≈ 25.5 µM) | 24.8 mg/kg | 9.1 mg/kg | 12.5 mg/kg | 0.41 mg/kg | 50 µg/mL (≈ 102 µM) | 1.6 µg/mL (≈ 3.26 µM) | 0.4 µg/mL (≈ 0.815 µM) | 0.2 µg/mL (≈ 0.408 µM) | 50 µg/mL (≈ 102 µM) | 0.2 µg/mL (≈ 0.408 µM) | 3.1 µg/mL (≈ 6.32 µM) | 0.8 µg/mL (≈ 1.63 µM) | 0.13 mg/kg | 5 mg/kg | 4.1 mg/kg | 0.32 mg/kg | 0.7 mg/kg | Tmax [25]: 20 min; ED50 [7]: 8.1 mg/kg
